Test results: the supplement of paper PMC10307832

What was measured:
Assay in all cases: relative viability (nuclei count vs DMSO), 5 days (fraction); higher = more cells survive
[1] = compound: COc1cc2nccc(Oc3ccc(NC(=O)C4(C(=O)Nc5ccc(F)cc5)CC4)cc3)c2cc1OC [Cabozantinib] + Nc1ncn([C@H]2C[C@H](O)[C@@H](CO)O2)c(=O)n1 [Decitabine] (partner 2 µM)
Method in brief: (§1)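 The day after seeding in 1536-well plates, lung cancer cell lines were treated by pin tool with a single drug, or with a fixed anchor-drug dose together with five library-drug doses (not always all listed) in √10 steps. After 5 days, a combined fix-and-stain solution (final 0.05% Triton X-100, 1% formaldehyde, 1 ug/ml Hoechst) was added. Nuclei counted on 4× images gave relative viability as treated counts over vehicle counts, reported as the median of duplicate plates.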

Zosuquidar + Luminespib = compound: O[C@@H](COc1cccc2ncccc12)CN1CCN([C@@H]2c3ccccc3[C@@H]3[C@H](c4ccccc42)C3(F)F)CC1 [Zosuquidar] + CCNC(=O)c1noc(-c2cc(C(C)C)c(O)cc2O)c1-c1ccc(CN2CCOCC2)cc1 [Luminespib] (partner 0.01 µM)
Method in brief: as §1

Kobe2602 + Crizotinib = compound: C1=CC(=CC=C1NC(=S)NNC2=C(C=C(C=C2[N+](=O)[O-])C(F)(F)F)[N+](=O)[O-])F [Kobe2602] + C[C@@H](Oc1cc(-c2cnn(C3CCNCC3)c2)cnc1N)c1c(Cl)ccc(F)c1Cl [Crizotinib] (partner 1 µM)
Method in brief: as §1

Kobe2602 + Bortezomib = compound: C1=CC(=CC=C1NC(=S)NNC2=C(C=C(C=C2[N+](=O)[O-])C(F)(F)F)[N+](=O)[O-])F [Kobe2602] + CC(C)C[C@H](NC(=O)[C@H](Cc1ccccc1)NC(=O)c1cnccn1)B(O)O [Bortezomib] (partner 0.002 µM)
Method in brief: as §1

SW 900
relative viability ([1]; first compound 0.02 µM): 0.44
relative viability ([1]; first compound 0.06325 µM): 0.508
relative viability ([1]; first compound 0.2 µM): 0.412
relative viability ([1]; first compound 0.6325 µM): 0.475
relative viability ([1]; first compound 2 µM): 0.556
relative viability (Zosuquidar + Luminespib; first compound 0.01 µM): 0.172
relative viability (Zosuquidar + Luminespib; first compound 0.03162 µM): 0.171
relative viability (Zosuquidar + Luminespib; first compound 0.1 µM): 0.181
relative viability (Zosuquidar + Luminespib; first compound 0.3162 µM): 0.198
relative viability (Zosuquidar + Luminespib; first compound 1 µM): 0.172

NCI-H1563
relative viability (Kobe2602 + Crizotinib; first compound 0.2 µM): 0.844
relative viability (Kobe2602 + Crizotinib; first compound 0.6325 µM): 0.885
relative viability (Kobe2602 + Crizotinib; first compound 2 µM): 0.749
relative viability (Kobe2602 + Crizotinib; first compound 6.325 µM): 0.939
relative viability (Kobe2602 + Crizotinib; first compound 20 µM): 0.85
relative viability (Kobe2602 + Bortezomib; first compound 0.2 µM): 0.954
relative viability (Kobe2602 + Bortezomib; first compound 0.6325 µM): 1.13
relative viability (Kobe2602 + Bortezomib; first compound 2 µM): 0.71
relative viability (Kobe2602 + Bortezomib; first compound 6.325 µM): 0.933
relative viability (Kobe2602 + Bortezomib; first compound 20 µM): 0.794
relative viability (Zosuquidar + Luminespib; first compound 0.01 µM): 0.471
relative viability (Zosuquidar + Luminespib; first compound 0.03162 µM): 0.536
relative viability (Zosuquidar + Luminespib; first compound 0.1 µM): 0.523
relative viability (Zosuquidar + Luminespib; first compound 0.3162 µM): 0.538
relative viability (Zosuquidar + Luminespib; first compound 1 µM): 0.532

NCI-H1944
relative viability (Kobe2602 + Crizotinib; first compound 0.2 µM): 1.01
relative viability (Kobe2602 + Crizotinib; first compound 0.6325 µM): 1.19
relative viability (Kobe2602 + Crizotinib; first compound 2 µM): 1.14
relative viability (Kobe2602 + Crizotinib; first compound 6.325 µM): 1.09
relative viability (Kobe2602 + Crizotinib; first compound 20 µM): 1.14
relative viability ([1]; first compound 0.02 µM): 0.477
relative viability ([1]; first compound 0.06325 µM): 0.483
relative viability ([1]; first compound 0.2 µM): 0.42
relative viability ([1]; first compound 0.6325 µM): 0.481
relative viability ([1]; first compound 2 µM): 0.466
relative viability (Zosuquidar + Luminespib; first compound 0.01 µM): 0.76
relative viability (Zosuquidar + Luminespib; first compound 0.03162 µM): 0.655
relative viability (Zosuquidar + Luminespib; first compound 0.1 µM): 0.722
relative viability (Zosuquidar + Luminespib; first compound 0.3162 µM): 0.785
relative viability (Zosuquidar + Luminespib; first compound 1 µM): 0.651

NCI-H358
relative viability (Kobe2602 + Crizotinib; first compound 0.2 µM): 0.598
relative viability (Kobe2602 + Crizotinib; first compound 0.6325 µM): 0.597
relative viability (Kobe2602 + Crizotinib; first compound 2 µM): 0.581
relative viability (Kobe2602 + Crizotinib; first compound 6.325 µM): 0.746
relative viability (Kobe2602 + Crizotinib; first compound 20 µM): 0.652
relative viability ([1]; first compound 0.02 µM): 0.226
relative viability ([1]; first compound 0.06325 µM): 0.224
relative viability ([1]; first compound 0.2 µM): 0.214
relative viability ([1]; first compound 0.6325 µM): 0.218
relative viability ([1]; first compound 2 µM): 0.233
relative viability (Zosuquidar + Luminespib; first compound 0.01 µM): 0.334
relative viability (Zosuquidar + Luminespib; first compound 0.03162 µM): 0.356
relative viability (Zosuquidar + Luminespib; first compound 0.1 µM): 0.441
relative viability (Zosuquidar + Luminespib; first compound 0.3162 µM): 0.347
relative viability (Zosuquidar + Luminespib; first compound 1 µM): 0.413

NCI-H1395
relative viability ([1]; first compound 0.02 µM): 0.786
relative viability ([1]; first compound 0.06325 µM): 0.741
relative viability ([1]; first compound 0.2 µM): 0.682
relative viability ([1]; first compound 0.6325 µM): 0.713
relative viability ([1]; first compound 2 µM): 0.654
relative viability (Zosuquidar + Luminespib; first compound 0.01 µM): 0.685
relative viability (Zosuquidar + Luminespib; first compound 0.03162 µM): 0.656
relative viability (Zosuquidar + Luminespib; first compound 0.1 µM): 0.618
relative viability (Zosuquidar + Luminespib; first compound 0.3162 µM): 0.349
relative viability (Zosuquidar + Luminespib; first compound 1 µM): 0.818

Calu-6
relative viability (Kobe2602 + Crizotinib; first compound 0.2 µM): 0.84
relative viability (Kobe2602 + Crizotinib; first compound 0.6325 µM): 0.78
relative viability (Kobe2602 + Crizotinib; first compound 2 µM): 0.786
relative viability (Kobe2602 + Crizotinib; first compound 6.325 µM): 0.744
relative viability (Kobe2602 + Crizotinib; first compound 20 µM): 0.813
relative viability (Kobe2602 + Bortezomib; first compound 0.2 µM): 1.11
relative viability (Kobe2602 + Bortezomib; first compound 0.6325 µM): 1.04
relative viability (Kobe2602 + Bortezomib; first compound 2 µM): 0.945
relative viability (Kobe2602 + Bortezomib; first compound 6.325 µM): 0.971
relative viability (Kobe2602 + Bortezomib; first compound 20 µM): 0.951

NCI-H1793
relative viability ([1]; first compound 0.02 µM): 0.4
relative viability ([1]; first compound 0.06325 µM): 0.555
relative viability ([1]; first compound 0.6325 µM): 0.469
relative viability ([1]; first compound 2 µM): 0.489
relative viability (Zosuquidar + Luminespib; first compound 0.01 µM): 0.179
relative viability (Zosuquidar + Luminespib; first compound 0.03162 µM): 0.263
relative viability (Zosuquidar + Luminespib; first compound 0.3162 µM): 0.207
relative viability (Zosuquidar + Luminespib; first compound 1 µM): 0.207

EBC-1
relative viability (Kobe2602 + Crizotinib; first compound 0.2 µM): 0.225
relative viability (Kobe2602 + Crizotinib; first compound 0.6325 µM): 0.239
relative viability (Kobe2602 + Crizotinib; first compound 2 µM): 0.185
relative viability (Kobe2602 + Crizotinib; first compound 6.325 µM): 0.203
relative viability (Kobe2602 + Crizotinib; first compound 20 µM): 0.216
relative viability (Kobe2602 + Bortezomib; first compound 0.2 µM): 0.528
relative viability (Kobe2602 + Bortezomib; first compound 0.6325 µM): 0.479
relative viability (Kobe2602 + Bortezomib; first compound 2 µM): 0.539
relative viability (Kobe2602 + Bortezomib; first compound 6.325 µM): 0.511
relative viability (Kobe2602 + Bortezomib; first compound 20 µM): 0.612

NCI-H2342
relative viability ([1]; first compound 0.02 µM): 0.642
relative viability ([1]; first compound 0.06325 µM): 0.832
relative viability ([1]; first compound 0.2 µM): 0.765
relative viability ([1]; first compound 0.6325 µM): 0.788
relative viability ([1]; first compound 2 µM): 0.544
relative viability (Zosuquidar + Luminespib; first compound 0.01 µM): 0.753
relative viability (Zosuquidar + Luminespib; first compound 0.03162 µM): 0.591
relative viability (Zosuquidar + Luminespib; first compound 0.1 µM): 0.605
relative viability (Zosuquidar + Luminespib; first compound 0.3162 µM): 0.644
relative viability (Zosuquidar + Luminespib; first compound 1 µM): 0.845

NCI-H1703
relative viability (Kobe2602 + Crizotinib; first compound 0.2 µM): 0.775
relative viability (Kobe2602 + Crizotinib; first compound 0.6325 µM): 0.66
relative viability (Kobe2602 + Crizotinib; first compound 2 µM): 0.56
relative viability (Kobe2602 + Crizotinib; first compound 6.325 µM): 0.829
relative viability (Kobe2602 + Crizotinib; first compound 20 µM): 0.501
relative viability (Kobe2602 + Bortezomib; first compound 0.2 µM): 0.371
relative viability (Kobe2602 + Bortezomib; first compound 0.6325 µM): 0.379
relative viability (Kobe2602 + Bortezomib; first compound 2 µM): 0.286
relative viability (Kobe2602 + Bortezomib; first compound 6.325 µM): 0.367
relative viability (Kobe2602 + Bortezomib; first compound 20 µM): 0.342

NCI-H1648
relative viability ([1]; first compound 0.02 µM): 0.469
relative viability ([1]; first compound 0.06325 µM): 0.524
relative viability ([1]; first compound 0.6325 µM): 0.532
relative viability ([1]; first compound 2 µM): 0.516

NCI-H522
relative viability ([1]; first compound 0.02 µM): 0.577
relative viability ([1]; first compound 0.06325 µM): 0.655
relative viability ([1]; first compound 0.2 µM): 0.564
relative viability ([1]; first compound 0.6325 µM): 0.74
relative viability ([1]; first compound 2 µM): 0.654
relative viability (Zosuquidar + Luminespib; first compound 0.01 µM): 1.08
relative viability (Zosuquidar + Luminespib; first compound 0.03162 µM): 1.19
relative viability (Zosuquidar + Luminespib; first compound 0.1 µM): 1.23
relative viability (Zosuquidar + Luminespib; first compound 0.3162 µM): 0.965
relative viability (Zosuquidar + Luminespib; first compound 1 µM): 1.28

A549
relative viability (Kobe2602 + Crizotinib; first compound 0.2 µM): 0.759
relative viability (Kobe2602 + Crizotinib; first compound 0.6325 µM): 0.723
relative viability (Kobe2602 + Crizotinib; first compound 2 µM): 0.781
relative viability (Kobe2602 + Crizotinib; first compound 6.325 µM): 0.764
relative viability (Kobe2602 + Crizotinib; first compound 20 µM): 0.8
relative viability ([1]; first compound 0.02 µM): 0.298
relative viability ([1]; first compound 0.06325 µM): 0.26
relative viability ([1]; first compound 0.2 µM): 0.263
relative viability ([1]; first compound 0.6325 µM): 0.313
relative viability ([1]; first compound 2 µM): 0.306

HCC-78
relative viability (Kobe2602 + Crizotinib; first compound 0.2 µM): 0.382
relative viability (Kobe2602 + Crizotinib; first compound 0.6325 µM): 0.302
relative viability (Kobe2602 + Crizotinib; first compound 6.325 µM): 0.333
relative viability (Kobe2602 + Crizotinib; first compound 20 µM): 0.363
relative viability ([1]; first compound 0.06325 µM): 0.704
relative viability ([1]; first compound 0.2 µM): 0.503
relative viability ([1]; first compound 0.6325 µM): 0.489
relative viability ([1]; first compound 2 µM): 0.487
relative viability (Kobe2602 + Bortezomib; first compound 0.2 µM): 0.543
relative viability (Kobe2602 + Bortezomib; first compound 0.6325 µM): 0.574
relative viability (Kobe2602 + Bortezomib; first compound 2 µM): 0.446
relative viability (Kobe2602 + Bortezomib; first compound 6.325 µM): 0.244
relative viability (Kobe2602 + Bortezomib; first compound 20 µM): 0.57
